In publication PMC6478823, “A suite of phenotypic assays to ensure pipeline diversity when prioritizing drug-like Cryptosporidium growth inhibitors” (Nature Communications, 2019):
“And” between values parts separate entries of the source, which are not always exact repeats. Identical values can stand only once. Like-named read-outs stand apart in the source and are kept apart here.

Legend:
C. parvum [1] = assay: 48 h Cryptosporidium growth inhibition assay; assay type: cell-based, Cryptosporidium parvum; conditions: for EC90: compound added 3 h post-infection, read at 48 h; for 0 - 48 h V. villosa lectin (asexual): Mean % Inhibition (parasites): replicates 1-2
From the text: As a first step in developing specific Cryptosporidium mode of action assays, we conducted a series of light microscopy time-lapse and transmission electron microscopy (TEM) time course experiments in order to precisely define C. parvum development within the HCT-8 cell culture system. […] This synchronicity was exploited by modifying a previously developed high-content microscopy assay. These assay modifications enabled the evaluation of several key events within the life cycle: host cell invasion, intracellular replication, host cell egress and establishment of new parasitophorous vacuoles, and sexual differentiation. […] Since the methods all used automated liquid handling, imaging, and image analysis, the assay methods all incorporated nuclear staining to monitor host cell numbers and enable recognition of HCT-8 cell monolayer damage, for example as an artifact from a malfunctioning plate washer or from unanticipated cytotoxicity of the compounds.
Human ileocecal adenocarcinoma (HCT-8) cells were purchased from ATCC (catalog# CCL-244) and cultured in ATCC modified RPMI-1640 medium (Gibco, catalog# A10491–01), supplemented with 10% heat-inactivated fetal bovine serum (Sigma-Aldrich, catalog# 12306C) and 120 U/mL penicillin and 120 μg/mL streptomycin (Gibco, catalog# 15140-122) (culture media). […] For all experiments, HCT-8 cells between passages 9 and 39 were used. C. parvum (Iowa isolate) oocysts were purchased from Bunchgrass Farm (Deary, ID), stored at 4 °C and used within 5 months of collection from an infected calf. To induce excystation, oocysts were first treated with 10 mM hydrochloric acid for 10 min at 37 °C, spun at 14,000×g for 4.5 min at room temperature, treated with 2 mM sodium taurocholate for 10 min at 16 °C, spun as before, and resuspended in culture media for infection.
A modification of a previously reported immunofluorescence assay was used to determine the EC50 and EC90 of compounds[13]. HCT-8 cells were grown to ≥ 90% confluence in 384-well plates (Corning, catalog# 353962) and infected with 5500 oocysts per well after they were induced for excystation as described above. Different concentrations of compounds were added 3 h post-infection and plates were incubated for another 45 h in a 5% CO2 incubator at 37 °C. Wells were then washed 3 times with PBS containing 111 mM D-galactose (PBS-D-gal), fixed with 4% paraformaldehyde (PFA) in PBS for 15 min at room temperature, permeabilized with 0.25% Triton X-100 for 10 min at 37 °C, washed 3 times with PBS with 0.1% Tween 20, and blocked with 4% bovine serum albumin (BSA) in PBS for 2 h at 37 °C or 4 °C overnight. Parasitophorous vacuoles were stained with 1.33 µg/mL of fluorescein-labeled Vicia villosa lectin (Vector Laboratories, catalog# FL-1231) diluted in 1% BSA in PBS with 0.1% Tween 20 for 1 h at 37 °C, followed by addition of Hoechst 33258 (AnaSpec, catalog# AS-83219) at 0.09 mM diluted in water for another 15 min at 37 °C. Wells were then washed 5 times with PBS containing 0.1% Tween 20. A Nikon Eclipse Ti2000 epifluorescence microscope with an automated stage was programmed using NIS-Elements Advanced Research software (Nikon, USA) to focus on the center of each well and take a 3 × 3 or 6 × 6 composite image using an EXi blue fluorescence microscopy camera (QImaging, Canada) with a 20 × objective (NA = 0.45). Nuclei and parasite images were separately exported as.tif files and analyzed using macros developed on the ImageJ platform (National Institutes of Health)[13].

C. parvum [2] = assay: DNA replication assay (EdU incorporation); assay type: cell-based, Cryptosporidium parvum; conditions: compound at EC90; for DNA Synthesis Assay: Mean % Inhibition of EdU-labeling (normalized to parasite numbers), Replicate 1: single replicate 1; for DNA Synthesis Assay: Mean % Inhibition of EdU-labeling (normalized to parasite numbers), Replicate 2: single replicate 2; for DNA Synthesis Assay: Mean % Inhibition of EdU-labeling (normalized to parasite numbers), Average: average of replicates; for DNA Synthesis Assay: Mean % Inhibition of EdU-labeling (normalized to parasite numbers), Replicate 3: single replicate 3; for DNA synthesis: yes/no grouping by phenotypic assay result
From the text: Following cell invasion, Cryptosporidium trophozoites grow and multiply to give rise to multinucleated type I meronts (Fig. 3a). The thymidine analog 5-ethynyl-2′-deoxyuridine (EdU) is efficiently incorporated into newly synthesized DNA, and can be detected using click chemistry. We used EdU to measure parasite intracellular DNA replication, as a surrogate for the more complex phenotype of intracellular growth and division. The approach for differentially labeling newly synthesized parasite DNA compared to host cell DNA was to take advantage of the fact that C. parvum replicates more quickly than the nearly confluent host cells. Thus, by adding EdU shortly before egress, it was possible to preferentially label replicating parasites (Fig. 3b, c). DNA staining with Hoechst labeled all of the host and parasite DNA, making it challenging to visualize and quantify parasite DNA. A simple DNA stain would also not distinguish pre-existing DNA from newly synthesized DNA (Fig. 3c). In contrast, EdU labeling only occurred with incorporation into newly synthesized DNA. Incorporated EdU was then easily stained for immunofluorescence and labeled parasites were quantified using high-content microscopy and an NIH ImageJ macro (Fig. 3c, DMSO condition). The […] hydroxyurea (10 mM), a known inhibitor of DNA replication, was used as a positive control for assay validation. […] Compounds with activity in this assay cannot be concluded to specifically target DNA replication, which is a complex phenotype.
Confluent HCT-8 cell monolayers in glass bottom plates were infected with C. parvum, and compounds were added at EC90 following invasion. At 9 h post-infection, 10 µM EdU was added, followed by incubation for another 2 h, and then washing, fixing, and staining for microscopy. […] 40 × dry objective (NA = 0.7); scale = 5 µm. Arrows indicate selected parasites with EdU-labeled DNA. d Quantification of EdU incorporation. […] Data are mean and SD of 2–5 biological replicates.
After incubation of cells with EdU for 2 h, cells were washed 3 times with PBS-D-gal and then fixed with PBS containing 4% PFA. Cells were then permeabilized and stained for EdU using the Click-iT® assay kit (Thermo Fisher Scientific, catalog# C10340) as per the manufacturer’s instructions. Cells were then imaged by focusing on parasites (note that the host cell nuclei are in a different focal plane) using a 40 × dry objective (0.7 NA) and EdU, and lectin numbers quantified using ImageJ software and the custom macro in Supplementary Method 1.

C. parvum [3] = assay: Egress, motility, reinvasion assay (PV ratio); conditions: compound at EC90; for Egress and Reinvasion Assay: Mean PV ratios (19.5h:6h), Average: average of replicates; for Egress and Reinvasion Assay: Mean PV ratios (19.5h:6h), Replicate 1a: single replicate 1; for Egress and Reinvasion Assay: Mean PV ratios (19.5h:6h), Replicate 2a: single replicate 2; for Egress and Reinvasion Assay: Mean PV ratios (19.5h:6h), Replicate 3a: single replicate 3; for Egress and Reinvasion Assay: Mean PV ratios (19.5h:6h), Replicate 4a: single replicate 4
Procedure: For quantification of parasitophorous vacuoles over time, HCT-8 cells were grown to greater than 90% confluence in 384-well plates and infected with 11,000 oocysts after triggering excystation.

[4] = read-out: Regular 3 to 48 h assay in vitro EC90, C. parvum in HCT-8 cells

Row | SMILES | DNA Synthesis Assay: Mean % Inhibition of EdU-labeling (normalized to parasite numbers), Replicate 1 (C. parvum [2]) [%] | DNA Synthesis Assay: Mean % Inhibition of EdU-labeling (normalized to parasite numbers), Replicate 2 (C. parvum [2]) [%] | Egress and Reinvasion Assay: Mean PV ratios (19.5h:6h), Average (C. parvum [3]) | Egress and Reinvasion Assay: Mean PV ratios (19.5h:6h), Replicate 1a (C. parvum [3]) | Egress and Reinvasion Assay: Mean PV ratios (19.5h:6h), Replicate 2a (C. parvum [3]) | Egress and Reinvasion Assay: Mean PV ratios (19.5h:6h), Replicate 3a (C. parvum [3]) | Egress and Reinvasion Assay: Mean PV ratios (19.5h:6h), Replicate 4a (C. parvum [3]) | EC90 (C. parvum [1]; [4]) [nM] | DNA Synthesis Assay: Mean % Inhibition of EdU-labeling (normalized to parasite numbers), Average (C. parvum [2]) [%] | DNA Synthesis Assay: Mean % Inhibition of EdU-labeling (normalized to parasite numbers), Replicate 3 (C. parvum [2]) [%] | DNA synthesis (C. parvum [2]) | further results
1 | Cc1cc(/C=C/c2ccc3cc(N(C)C)ccc3[n+]2C)c(C)n1-c1ccccc1 [Pyrvinium pamoate] | 94.57 | 70.33 | 0.61 | 0.97 | 0.85 | 0.33 | 0.30 | – | – | – | – | EC90 (C. parvum [1]; Cryptosporidium parvum, HCT-8, read-out: Regular 3 to 48 h assay in vitro EC90, C. parvum in HCT-8 cells): 3210 nM; DNA synthesis (mean % inhibition) (C. parvum [2]; EdU added 9 h post-infection for 2 h): 88.30%
2 | Oc1c(CN2CCN(c3ccccc3F)CC2)cc(Br)c2cccnc12 [A-6] | 98.00 | 97.32 | 0.79 | 0.65 | 0.93 | – | – | 1330 | 89.49 | 80.45 | yes | DNA Synthesis Assay: Mean % Inhibition of EdU-labeling (normalized to parasite numbers), Replicate 4 (C. parvum [2]; single replicate 4): 78.02%; DNA Synthesis Assay: Mean % Inhibition of EdU-labeling (normalized to parasite numbers), Replicate 5 (C. parvum [2]; single replicate 5): 93.68%
3 | c1ccc(CNc2nc(Nc3ccccc3)nc3ccccc23)cc1 [B-1] | -48.95 | -39.64 | 1.58 | 1.28 | 1.59 | 1.80 | 1.65 | 2270 | -31.43 | -5.71 | no | 0 - 48 h V. villosa lectin (asexual): Mean % Inhibition (parasites) (C. parvum [1]; B-1 at log[MMV006169] (µM) 0.22): 61.21% and 81.70%; 0 - 48 h V. villosa lectin (asexual): Mean % Inhibition (parasites) (C. parvum [1]; B-1 at log[MMV006169] (µM) 0.52): 87.47% and 92.32%; 0 - 48 h V. villosa lectin (asexual): Mean % Inhibition (parasites) (C. parvum [1]; B-1 at log[MMV006169] (µM) 0.82): 91.12% and 90.37%; 0 - 48 h V. villosa lectin (asexual): Mean % Inhibition (parasites) (C. parvum [1]; B-1 at log[MMV006169] (µM) 1.00): 88.49% and 90.28%; 0 - 48 h V. villosa lectin (asexual): Mean % Inhibition (parasites) (C. parvum [1]; B-1 at log[MMV006169] (µM) -0.18): 5.34% and 39.84%; 0 - 48 h V. villosa lectin (asexual): Mean % Inhibition (parasites) (C. parvum [1]; B-1 at log[MMV006169] (µM) -0.65): -11.45% and 6.00%; 0 - 48 h V. villosa lectin (asexual): Mean % Inhibition (parasites) (C. parvum [1]; B-1 at log[MMV006169] (µM) -1.13): -7.55% and -4.41%; 0 - 48 h V. villosa lectin (asexual): Mean % Inhibition (parasites) (C. parvum [1]; B-1 at log[MMV006169] (µM) -1.61): -3.87% and -15.36%; 0 - 48 h V. villosa lectin (asexual): Mean % Inhibition (parasites) (C. parvum [1]; B-1 at log[MMV006169] (µM) -2.08): -14.75% and -13.18%; EC50 (C. parvum [1]; read-out: 0 − 48 h V. villosa lectin (asexual): EC50, asexual growth assay, first 48 h, range in brackets): 1000 nM
4 | Cc1cn(-c2cc(NC(=O)c3ccc(C)c(Nc4nccc(-c5cccnc5)n4)c3)cc(C(F)(F)F)c2)cn1 [Nilotinib] | 29.68 | 14.41 | 1.05 | 1.50 | 1.54 | 0.60 | 0.54 | – | 22.05 | – | – | EC90 (C. parvum [1]; Cryptosporidium parvum, read-out: Regular 3 to 48 h assay in vitro EC90, C. parvum in HCT-8 cells): 16500 nM
